Experimental data taken from US9745255B2, “Meta-substituted biphenyl peripherally restricted FAAH inhibitors” (The Regents of the University of California, priority 2011, dated 2017).
Read-outs that look alike come from different tables or passages of the source.

Experiments:
FAAH [1] = target: T1, FAAH (Rattus norvegicus, UniProt P97612); assay: In vitro FAAH assay (IC50, Tables 1 and 2); type: biochemical
T1 construct: Wistar rats were typically used for the FAAH studies; from tissue; host or cells: Wistar rat
T1 sequence (P97612 1-579): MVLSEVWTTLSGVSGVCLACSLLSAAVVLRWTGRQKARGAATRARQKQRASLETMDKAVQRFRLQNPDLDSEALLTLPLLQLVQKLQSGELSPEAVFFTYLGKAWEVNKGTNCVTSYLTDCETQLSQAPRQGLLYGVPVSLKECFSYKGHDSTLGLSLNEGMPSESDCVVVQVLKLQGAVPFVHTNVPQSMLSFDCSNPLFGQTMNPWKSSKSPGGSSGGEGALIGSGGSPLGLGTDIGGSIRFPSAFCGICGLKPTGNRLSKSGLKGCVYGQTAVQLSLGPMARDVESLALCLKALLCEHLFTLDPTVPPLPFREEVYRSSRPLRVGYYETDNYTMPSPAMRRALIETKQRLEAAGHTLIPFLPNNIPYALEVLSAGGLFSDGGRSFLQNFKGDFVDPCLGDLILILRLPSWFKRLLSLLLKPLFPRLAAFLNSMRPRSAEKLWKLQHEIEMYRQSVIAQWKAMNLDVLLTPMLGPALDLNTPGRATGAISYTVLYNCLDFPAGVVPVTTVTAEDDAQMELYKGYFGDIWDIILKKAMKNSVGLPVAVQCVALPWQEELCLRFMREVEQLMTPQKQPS
Experimental: Male Swiss Webster and CD1 mice (Charles River, 20-30 g) were used. Mice were group-housed in standard cages at room temperature on a 12:12 h light:dark cycle with unlimited access to water and standard chow pellets. Wistar rats were typically used for the FAAH studies. All experiments met the National Institutes of Health guidelines for the care and use of laboratory animals, were approved by the Institutional Animal Care and Use Committee of the University of California, Irvine, and the University of Georgia, Athens, and were in compliance with the European Community Council Directive 86 (609) EEC and the experimental protocol was carried out in compliance with Italian regulations (DL 116/92).
(§1) Comparison of compounds according to the invention with other peripherally restricted FAAH inhibitors for their ability to inhibit FAAH in the periphery. […] In particular, (1) IC50 values were generated in vitro using a FAAH assay. […] Mice received a 1 mg/kg dose of each compound by the intraperitoneal route, and were killed 2 h after administration. Tissues were collected and FAAH activity was measured ex vivo in tissue extracts (membrane fraction) using the FAAH assay.

FAAH [2] = target: T2, FAAH (Mus musculus, UniProt O08914); assay: Ex vivo FAAH activity in liver and brain tissue extracts after i.p. administration to mice; parameters: from tissue; host or cells: mouse liver and brain, membrane fraction of tissue extracts; settings: for inhibition at 1 mg/kg: mouse, ip, Table 1, mice, 1 mg/kg intraperitoneal, killed 2 h after administration, ex vivo
T2 sequence (O08914 1-579): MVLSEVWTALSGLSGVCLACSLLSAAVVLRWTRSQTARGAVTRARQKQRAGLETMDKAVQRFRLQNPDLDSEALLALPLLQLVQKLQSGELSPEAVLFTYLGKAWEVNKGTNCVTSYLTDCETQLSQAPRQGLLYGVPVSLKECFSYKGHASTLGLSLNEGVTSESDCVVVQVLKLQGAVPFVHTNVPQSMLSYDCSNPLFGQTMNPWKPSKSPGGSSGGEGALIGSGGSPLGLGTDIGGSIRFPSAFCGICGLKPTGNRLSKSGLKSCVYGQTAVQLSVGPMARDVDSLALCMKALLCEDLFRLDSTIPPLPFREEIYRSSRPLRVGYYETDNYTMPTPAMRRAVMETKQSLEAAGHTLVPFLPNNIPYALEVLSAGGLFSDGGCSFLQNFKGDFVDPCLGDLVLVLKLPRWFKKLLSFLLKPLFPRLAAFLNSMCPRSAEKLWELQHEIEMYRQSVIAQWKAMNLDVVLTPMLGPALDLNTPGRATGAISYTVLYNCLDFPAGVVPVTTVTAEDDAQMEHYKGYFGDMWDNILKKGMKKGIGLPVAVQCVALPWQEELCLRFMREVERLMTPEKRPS
Experimental: as §1

[3] = system: carrageenan-induced edema in male CD1 mice; assay: Carrageenan-induced paw edema; type: in vivo, mouse; settings: oral administration, 10 and 30 mg/kg, vs. vehicle (FIG. 1)
Experimental: (§2) Peripheral inflammation was induced by intraplantar (i.pl.) injection of the polysaccharide λ-carrageenan (i.pl. 1% weight vol^−1 in sterile water, 20 μL) into the left hind paw of male CD1 mice.
Paw edema was induced in mice by injection into the right hind paws of 50 μL, of sterile saline containing 1% λ-carrageenan. Paw volumes were measured using a plethysmometer (Ugo Basile, Milan, Italy). […] The increase in paw volume (mL) was evaluated as the difference between the paw volume measured at each time point and the basal paw volume measured immediately before carrageenan injection.

[4] = system: carrageenan-induced hyperalgesia in male CD1 mice; assay: Carrageenan-induced thermal hyperalgesia; type: in vivo, mouse; settings: oral administration, p<0.001 vs. vehicle (FIG. 3)
Experimental: as §2
(§3) Nocifensive responses were measured elicited by intraplantar injection of carrageenan in male CD1 mice (LoVerme, J., La Rana, G., Russo, R., Calignano, A., & Piomelli, D., The search for the palmitoylethanolamide receptor. Life Sci 77 (14), 1685-1698 (2005)).
(§4) Mechanical hyperalgesia was determined by measuring the latency in seconds to withdraw the paw away from a constant mechanical pressure exerted onto the dorsal surface. […] Withdrawal threshold was measured on the inflamed ipsilateral paw at different time points after oral drug administration. […] Thermal hyperalgesia was assessed as described (Hargreaves, K., Dubner, R., Brown, F., Flores, C., & Joris, J., A new and sensitive method for measuring thermal nociception in cutaneous hyperalgesia. Pain 32 (1), 77-88 (1988)), measuring the latency to withdraw the hindpaw from a focused beam of radiant heat (thermal intensity: infrared 3.0) applied to the plantar surface using a plantar test apparatus (Ugo Basile, Italy). […] Withdrawal latency was measured on the inflamed ipsilateral paw at different time points after oral drug administration. […]

[5] = system: carrageenan-induced hyperalgesia in male CD1 mice; assay: Carrageenan-induced mechanical hyperalgesia; type: in vivo, mouse; settings: oral administration, p<0.001 vs. vehicle (FIG. 2)
Experimental: as §2, §3, §4

[6] = Brain entry after systemic administration in mice; type: in vivo, mouse; settings: inferred from Table 3
Description: The activity of compounds of Formula I as peripherally restricted FAAH inhibitors was found based in part on the polarity of the p-hydroxyphenyl moiety.

[7] = system: rodent models of inflammation and peripheral nerve injury; assay: Rodent models of inflammation and peripheral nerve injury (persistent pain); type: in vivo; settings: prevented by CB1 receptor blockade
Description: (§5) Peripheral cannabinoid receptors exert a powerful inhibitory control over pain initiation, but the endogenous cannabinoid signal that normally engages this intrinsic analgesic mechanism is unknown. […] CB1 receptor blockade prevents these effects. […] Accordingly, relatively brain-impermeant FAAH inhibitors, which strengthen this gating mechanism, offer a new approach to pain therapy (see, U.S. Provisional Patent Application Ser. No. 61/368,500, filed on Jul. 28, 2010, which is incorporated herein by reference in its entirety for all purposes, and specifically with respect to methods of assaying FAAH inhibitors for their biological and pharmaceutical properties, and the pharmacological properties of peripherally restricted FAAH inhibitors in general).

FAAH [8] = target: T2, FAAH; assay: FAAH activity and anandamide levels outside the CNS; parameters: suppressed FAAH activity and increased anandamide levels outside the central nervous system (CNS); from tissue; host or cells: peripheral tissues of the dosed animal, not specified; settings: in vivo
Description: Peripheral cannabinoid receptors exert a powerful inhibitory control over pain initiation, but the endogenous cannabinoid signal that normally engages this intrinsic analgesic mechanism is unknown.

[9] = Transport system mediated extrusion from brain; settings: in vivo
Description: as §5

[10] = brain membrane fraction, read-out: FAAH inhibition in brain
[11] = liver membrane fraction, read-out: FAAH inhibition in liver

## NC(=O)c1cccc(-c2cc(OC(=O)NC3CCCCC3)ccc2C(=O)O)c1 [ARN0715]
FAAH [1]; Table 2 (Example 5)
  IC50: 2.1 µM
FAAH [2]; Table 2 (Example 5), brain
  FAAH inhibition in brain: −2.1 ± 0.5%
FAAH [2]; Table 2 (Example 5), liver
  FAAH inhibition in liver: 86.3 ± 1.3%

## NC(=O)c1cccc(-c2cc(O)cc(OC(=O)NC3CCCCC3)c2)c1 [Compound 1, [3-(3-carbamoylphenyl)-5-hydroxy-phenyl]N-cyclohexylcarbamate]
[3]
  difference between paw volume at each time point and basal paw volume (carrageenan-induced edema): reduced
[4]
  withdrawal threshold on inflamed ipsilateral paw, thermal hyperalgesia test: increased
[5]
  withdrawal threshold on inflamed ipsilateral paw, mechanical hyperalgesia test: increased
FAAH [2]; [10]
  inhibition at 1 mg/kg: -4.2 ± 2.5%
FAAH [2]; [11]
  inhibition at 1 mg/kg: 89.5 ± 1.1%

## COc1ccc(OC(=O)NC2CCCCC2)cc1-c1cccc(C(N)=O)c1 [Compound 1c]
[6]
  entry into the brain after systemic administration: enter the brain

## Cc1ccc(OC(=O)NC2CCCCC2)cc1-c1cccc(C(N)=O)c1 [Compound 1d]
[6]
  entry into the brain after systemic administration: enter the brain

## NC(=O)c1cccc(-c2cc(OC(=O)NC3CCCCC3)ccc2F)c1 [Compound 1e]
[6]
  entry into the brain after systemic administration: enter the brain

## NC(=O)c1cccc(-c2cc(OC(=O)NC3CCCCC3)ccc2N)c1 [Compound 1f]
[6]
  entry into the brain after systemic administration: largely excluded

## CNC(=O)c1cccc(-c2cc(O)cc(OC(=O)NC3CCCCC3)c2)c1 [Compound 2, [3-hydroxy-5-[3-(methylcarbamoyl)phenyl]phenyl]N-cyclohexylcarbamate]
FAAH [1]; Table 1, in vitro FAAH assay
  IC50: 0.0003 µM
FAAH [2]; [10]
  inhibition at 1 mg/kg: -1.7 ± 0.2%
FAAH [2]; [11]
  inhibition at 1 mg/kg: 69.1 ± 3.5%

## NC(=O)c1cccc(-c2cc(OC(=O)NC3CCCCC3)ccc2O)c1 [URB937]
[7]
  noxious stimulus-evoked neuronal activation in spinal cord regions implicated in nociceptive processing: suppresses
[7]; rodent models of inflammation and peripheral nerve injury
  behavioral responses indicative of persistent pain: attenuated
FAAH [8]
  FAAH activity outside the central nervous system (CNS): suppressed
  anandamide levels outside the central nervous system (CNS): increased
[9]
  susceptibility to transport system mediated extrusion from brain: surprisingly susceptible
